Results on eight compounds are retold here after patent publication US8586751B2, “Nicotinamide compounds useful as kinase modulators” (Bristol-Myers Squibb Company, priority 2009, dated 2013).

One experiment has as its target T1, human recombinant Btk (Homo sapiens, UniProt Q06187).
T1 construct: purchased Invitrogen Corporation
Put plainly: Human Recombinant Btk Enzyme Assay (LLE_BTK). In kind it is biochemical. Here is the method:
Human Recombinant Btk Enzyme Assay
To V-bottom 384-well plates were added test compounds, human recombinant Btk (1 nM, Invitrogen Corporation), fluoresceinated peptide (1.5 μM), ATP (20 μM), and assay buffer (20 mM HEPES pH 7.4, 10 mM MgCl2, 0.015% Brij35 and 4 mM DTT in 1.6% DMSO), with a final volume of 30 μL. After incubating at room temperature for 60 min, the reaction was terminated by adding 45 μl of 35 mM EDTA to each sample. The reaction mixture was analyzed on the Caliper LABCHIP® 3000 (Caliper, Hopkinton, Mass.) by electrophoretic separation of the fluorescent substrate and phosphorylated product. Inhibition data were calculated by comparison to no enzyme control reactions for 100% inhibition and no inhibitor controls for 0% inhibition. Dose response curves were generated to determine the concentration required inhibiting 50% of kinase activity (IC50). Compounds were dissolved at 10 mM in dimethylsulfoxide (DMSO) and evaluated at eleven concentrations.
Using this assay, the following IC50 values derived by non-linear regression analysis were determined and compared to those values of certain compounds in U.S. Publication No. 2007/078136 and U.S. Publication No. 2008/045536.

Experiment [1] deals with Ramos B cells with beta-lactamase reporter gene under control of an NFAT response element. The experiment is described as follows: NFAT-bla RA1 Reporter Assay (Ramos-NFAT). The format is cell-based, human. Particulars: Homo sapiens, Ramos, read-out: IMM Ramos-NFAT (IC50). The protocol:
NFAT-bla RA1 Reporter Assay
Ramos B cells containing a stable integration of a beta-lactamase reporter gene under the control of an NFAT response element (NFAT-bla RA1, Invitrogen, K1434) at a density of 100×10^3 cells/well were incubated with test compounds at 37° C. for 30 min prior to stimulation with F(ab′)2 anti-human IgM (Jackson ImmunoResearch, 109-006-129) at 2.5 μg/ml for 4.5 hrs at 37° C. After stimulation, LiveBLAzer-FRET B/G substrate (CCF2/AM, or CCF4/AM, Invitrogen) was added to each well and incubated for 90 min at room temperature in the dark. Assay plates were read on an LJL Analyst, with raw emission values subtracted from a media-only blank containing substrate in assay media (no cells). The ratios of 460 nm/530 nm emission (405 nm excitation) were used to calculate the amount of stimulation.
A general note: In a reporter assay the amount or activity of a reporter protein is the signal.

SMILES strings stand for the structures.

T1 sequence (Q06187 whole entry): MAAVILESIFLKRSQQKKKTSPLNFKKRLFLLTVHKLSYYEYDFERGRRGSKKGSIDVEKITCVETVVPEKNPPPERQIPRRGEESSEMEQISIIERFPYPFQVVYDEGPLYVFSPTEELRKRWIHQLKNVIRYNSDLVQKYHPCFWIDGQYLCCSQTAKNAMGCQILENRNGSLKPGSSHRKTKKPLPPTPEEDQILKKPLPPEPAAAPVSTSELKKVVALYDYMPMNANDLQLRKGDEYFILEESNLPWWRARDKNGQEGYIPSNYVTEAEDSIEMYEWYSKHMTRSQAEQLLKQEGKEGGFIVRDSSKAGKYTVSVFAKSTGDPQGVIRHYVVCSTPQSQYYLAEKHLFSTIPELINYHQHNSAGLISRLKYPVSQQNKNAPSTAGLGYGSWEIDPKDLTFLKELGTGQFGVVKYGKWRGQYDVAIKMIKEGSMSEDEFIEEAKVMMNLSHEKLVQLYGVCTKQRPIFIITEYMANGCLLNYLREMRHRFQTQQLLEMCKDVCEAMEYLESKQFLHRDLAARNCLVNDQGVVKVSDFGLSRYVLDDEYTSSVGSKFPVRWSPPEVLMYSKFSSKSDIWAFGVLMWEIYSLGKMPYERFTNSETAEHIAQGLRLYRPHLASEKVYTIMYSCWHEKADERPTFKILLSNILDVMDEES

One may read the IC50 as the concentration that inhibits the measured activity by half. Turning to `CN1CCCC(c2ccc(Nc3nc(N4CCC[C@@H](NC(=O)Nc5nncs5)C4)c(F)cc3C(N)=O)cc2)C1` (stereo partly shown) [Example 558], the IC50 on human recombinant Btk came to 2 nM; in experiment [1], 380 nM.
For `CN1CCCC(c2ccc(Nc3nc(N4CCC[C@@H](NC(=O)Nc5nnc(C(F)(F)F)s5)C4)c(F)cc3C(N)=O)cc2)C1` (stereo partly shown) [Example 559], in that order: 2 nM and 70 nM.
The like results for `CN1CCCC(c2ccc(Nc3nc(N4CCC[C@@H](NC(=O)Nc5nnc(C6CC6)s5)C4)c(F)cc3C(N)=O)cc2)C1` (stereo partly shown) [Example 560] were, in that order, 0.8 nM and 180 nM.
Regarding `CN1CCCC(c2ccc(Nc3nc(N4CCC[C@@H](NC(=O)Nc5nnc(C(C)(C)C)s5)C4)c(F)cc3C(N)=O)cc2)C1` (stereo partly shown) [Example 561], the IC50 on human recombinant Btk was 0.9 nM; in experiment [1], 140 nM.
Turning to `CN1CCCC(c2ccc(Nc3nc(N4CCC[C@@H](NC(=O)Nc5ncc(F)s5)C4)c(F)cc3C(N)=O)cc2)C1` (stereo partly shown) [Example 564], the values for the concentration for half-maximal inhibition (IC50) (at human recombinant Btk; in experiment [1]) were 1 nM and 100 nM, respectively.
The like results for `CN1CCC(C)(c2ccc(Nc3nc(N4CCC[C@@H](N5CCCC5=O)C4)c(F)cc3C(N)=O)cc2)CC1` [Example 566] were, in that order, 3 nM and 90 nM.
On to `CN1CCC(O)(c2ccc(Nc3nc(N4CCC[C@@H](N5CCCC5=O)C4)c(F)cc3C(N)=O)cc2)C(C)(C)C1` (stereo partly shown) [Example 568], for which the IC50 is 1 nM at human recombinant Btk and 120 nM in experiment [1].
For `CN1CCC(C)(c2ccc(Nc3nc(N4CCCC5(CC(c6ccccc6)=NO5)C4)c(F)cc3C(N)=O)cc2)CC1` (stereo not shown) [Example 571], the values for the 50% inhibitory concentration (IC50) (on human recombinant Btk; in experiment [1]) were 2 nM and 150 nM, respectively.
